{"source": "patent US20030119800A1", "about": "“Bone anabolic compounds and methods of use” (priority 2001, published 2003)", "key": {"[1]": {"test_system": "ER (lamb uterus cytosol, human ERα, human ERβ)", "experiment": "Relative binding affinity by competition with 3H E2 (FIG. 10)", "description": "The proteins were absorbed to hydroxylapatite (HAP) and the free ligand removed by washing (Carlson et al, 1997). Results are expressed as percent specific binding. […] Symbols indicate means±SD of two separate experiments in which each point was determined in duplicate.\nStatistical analysis: ANOVA was used to detect treatment effects. Specifically, in FIGS. 1-6 & 8, Dunnett's test (Kuehl et al, 2000) was used to detect differences between various treatments as compared to the vehicle control group. To detect differences in the efficacy of the various compounds shown in FIGS. 7A & B, the dose response curves were compared using tests for linear trend (Kuehl, 2002). Bonferroni's method was used to perform all pairwise comparisons of treatment groups in FIGS. 7E & F, FIGS. 11A, B, C, FIG. 12A, FIG. 13, FIGS. 14A and B and FIG. 9. Because the normality assumption was not satisfied for the data in FIGS. 3C & D and FIG. 12C, Wilcoxon's rank sum test (Steel et al, 1997) was used to perform all pairwise comparisons of treatment groups using a Bonferroni correction. In FIG. 14D, a two-way ANOVA was used to detect treatment and dose effects and tests for linear trend were subsequently employed to determine significant effects of each compound. In FIG. 10, logistic regression was used to estimate EC50, which was then used to determine the relative binding affinity. […]"}, "[2]": {"test_system": "OVX or ORX Swiss Webster mice", "experiment": "Gonadectomized (OVX or ORX) Swiss Webster mice with 60-day slow release pellets: bone and reproductive tissues", "format": "in vivo, mouse", "description": "Osteoblastic cells (A) were isolated from calvaria of neonatal female or male mice, the sex of which was determined by Southern blot analysis of liver DNA with a Y chromosome specific cDNA probe; and cultured as previously described. The ability of the indicated steroids to protect against etoposide induced apoptosis was determined as in FIG. 1D, lower panel. (B) Osteoclasts were generated in bone marrow cultures from adult female or male mice, and then treated with vehicle or the indicated concentrations of steroids for 24 hours at which point the number of cells undergoing apoptosis was determined. Representative results from 1 of 4 females and 1 of 4 males examined are shown. Each point represents the mean of triplicate determinations±SD. *p<0.05 vs. vehicle, by ANOVA. (C & D) Eight-month old Swiss Webster mice (n=8-10 per group) were sham-operated, ovariectomized (OVX) or orchidectomized (ORX). […] BMD and wet uterine or seminal vesicle weight was determined six weeks later. Bars indicate means±SD. *p<0.05 vs OVX or ORX.\nFIG. 9 illustrates the equivalence of the skeletal actions of estrogens and androgens in female and male mice. […] Six weeks later, osteoblast apoptosis in histologic sections of the vertebrae (A), osteoblastogenesis and osteoclastogenesis in ex vivo bone marrow cultures (B and C), and serum osteocalcin concentration (D) were determined. Bars indicate means±SD, *p<0.05 vs OVX or ORX.\nGlobal, spine and hindlimb BMD was determined at both 4 and 6 weeks later in the experiment with the 8 month old females, and at 6 weeks only in the experiments with the 6 month old females and males (A, B and C). The 6 week BMD data in females (B) represent pooled values from the two experiments with the 6- and the 8-month old mice.\nLongitudinal undecalcified sections of the distal femur are shown in (B). […] Osteoblast apoptosis in sections of L1-L4 vertebrae from females (8 month old) and males (C).\nHistomorphometric analysis of L1-L4 vertebrae from 6 month old females (A-F) and pooled serum osteocalcin levels from the 6 and 8 month old females (G). […] The ANGELS compounds described herein are useful for maintaining and/or increasing bone mass and/or strength and/or density in mammals. Mammals, preferably humans, in need of such compounds can include those suffering from such conditions as female osteoporosis (post menopausal), male osteoporosis, glucocorticoid-induced osteoporosis, immobilization and aging-related osteoporosis, idiopathic or juvenile osteoporosis, transplantation-related osteoporosis, and alveolar ridge bone loss. In addition, the compounds described herein are particularly useful for administration to subjects that are unable or unwilling to tolerate therapies that have a masculinizing or feminizing effect. For example, subjects such as breast cancer patients (especially those with bone metastasis on gonadotropin […] hormone (GnRH) or ovariectomized), prostrate cancer patients (especially those on GnRH/castration therapy), and myeloma/lymphoma patients are frequently poor candidates for treatment with estrogen or androgens because of the risk of a recurrence of the underlying condition, e.g., cancer.\nWet uterine (A) or seminal vesicle weight (B) of female and male mice described in FIG. 11. […] Note the following morphologic differences in the uteri of OVX- and OVX+4-estren-3α,17β-diol-treated mice as compared to uteri from sham-operated and OVX+E2-treated mice: thin and atrophic columnar epithelium; compact stroma; decreased number of glands; decreased nucleus to cytoplasmic ratio in the columnar epithelial, endometrial stroma, and myometrial cells; and absence of mitotic activity. (D) Proliferation of MCF-7 cells was determined by ^3H-thymidine uptake.\nFor these studies, mature Swiss Webster mice (8 month old), n=8-10 per group, were sham-operated or gonadectomized (GNDX). […]"}, "[3]": {"settings": "histomorphometry of lumbar vertebrae L1-L4, OVX females"}}}
{"smiles": "C[C@]12CC[C@H]3[C@@H](CCC4=C[C@H](O)CC[C@@H]43)[C@@H]1CC[C@@H]2O", "note": "[4-estren-3α,17β-diol]", "values": [{"measurement": "binding affinity for the ER compared to E2", "setting": "[1]", "result": "lower binding affinity"}, {"measurement": "body weight", "setting": "[2]; 7.6 mg per 60 day slow release pellet", "result": "no effect"}, {"measurement": "effect on the bone marrow cavity", "setting": "[2]; 4-estren-3α,17β-diol 7.6 mg pellet, E2 pharmacologic dose 100× the replacement dose", "result": "no adverse effects"}, {"measurement": "longitudinal undecalcified sections of the distal femur", "setting": "[2]; 4-estren-3α,17β-diol at 300× ERT versus vehicle or E2 1× ERT, E2 at 100× ERT", "result": "increased cortical and trabecular width"}, {"measurement": "bone compression strength in the vertebrae, male mice", "setting": "[2]; L5, ORX", "result": "equally effective"}, {"measurement": "bone compression strength in the vertebrae, female mice", "setting": "[2]; L5, compared to mice receiving E2", "result": "greater than in mice receiving E2"}, {"measurement": "BMD in ORX mice compared to DHT replacement", "setting": "[2]; ORX males, 7.6 mg pellet", "result": "at least as effective if not superior"}, {"measurement": "BMD values in the spine versus the untreated ORX group", "setting": "[2]; ORX males, 6 weeks", "result": "significantly higher"}, {"measurement": "seminal vesicle weight", "setting": "[2]; ORX males, pellets E2 0.025 mg or 4-estren-3α,17β-diol 7.6 mg", "result": "no effect"}, {"measurement": "histologic analysis of the uterus", "setting": "[2]; OVX females", "result": "lack of an effect"}, {"measurement": "wet uterine weight", "setting": "[2]; OVX females, pellets DHT 10 mg or 4-estren-3α,17β-diol 7.6 mg", "result": "no effect"}, {"measurement": "BMD change in the hindlimb", "setting": "[2]; OVX mice, compared to OVX+E2 replacement and to estrogen replete sham controls", "result": "greater BMD change"}, {"measurement": "global and spinal BMD in females", "setting": "[2]; OVX, 7.6 mg pellet versus E2 replacement", "result": "as effective, if not superior to estradiol"}, {"measurement": "osteoclast number", "setting": "[2]; as compared to the OVX group", "result": "suppressed"}, {"measurement": "rate of bone formation", "setting": "[2]; as compared to the OVX group", "result": "suppressed"}, {"measurement": "prevalence of osteoblast and osteocyte apoptosis in the lumbar vertebrae", "setting": "[2]; gonadectomized females or males", "result": "prevented the increased prevalence"}, {"measurement": "cortical width, greater compared to OVX mice treated with E2", "setting": "[2]; [3]", "result": 27.8, "unit": "%"}, {"measurement": "number of osteoblasts on the trabeculae, greater than in the E2-treated group", "setting": "[2]; [3]", "result": 319, "unit": "%"}, {"measurement": "osteoid perimeter, increase versus E2-treated group", "setting": "[2]; [3]", "result": 270, "unit": "%"}, {"measurement": "trabecular width, greater compared to OVX mice treated with E2", "setting": "[2]; [3]", "result": 33.9, "unit": "%"}, {"measurement": "serum osteocalcin", "setting": "[2]; two separate experiments, compared to OVX+E2 and to estrogen replete sham controls", "result": "significantly higher"}]}
